{"source": "patent US20190345199A1", "about": "“LIPOLANTHIPEPTIDES AND THEIR USES AS ANTIMICROBIAL AGENTS” (DEINOVE, priority 2017, published 2019)", "type_in_all_cases": "cell-based", "key": {"[1]": {"system": "Candida krusei", "assay": "MIC, extended antimicrobial activities (fungi)", "conditions": "Pichia kudriavzevii; Candida krusei DSMZ6128"}, "[2]": {"system": "Candida tropicalis", "assay": "MIC, extended antimicrobial activities (fungi)", "conditions": "Candida tropicalis DSMZ11953", "experimental": "(§1) The measures of activities were conducted on compound NOC1 from Nocardia terpenica following the protocol recommended by the Clinical and Laboratory Standards Institute (CLSI)—Clinical and Laboratory Standards Institute (CLSI, formerly NCCLS): Methods for Dilution Antibacterial Susceptibility Tests for Bacteria That Grow Aerobically; Approved Standard—Tenth Edition (2015). Clinical and Laboratory Standards Institute Document M07-A10."}, "[3]": {"system": "Candida parapsilosis", "assay": "MIC, extended antimicrobial activities (fungi)", "conditions": "Lodderomyces parapsilosis; Candida parapsilosis DSMZ5784", "experimental": "as §1"}, "[4]": {"system": "Candida albicans", "assay": "MIC, extended antimicrobial activities (fungi)", "conditions": "Candida albicans ATCC10231"}, "[5]": {"system": "Cryptococcus neoformans", "assay": "MIC, extended antimicrobial activities (fungi)", "conditions": "Cryptococcus neoformans DSMZ6972"}, "[6]": {"system": "Candida glabrata", "assay": "MIC, extended antimicrobial activities (fungi)", "conditions": "Nakaseomyces glabratus; Candida glabrata DSMZ6425"}, "[7]": {"system": "Staphylococcus aureus", "assay": "MIC, CLSI dilution antibacterial susceptibility test", "conditions": "read-out: Minimal Inhibitory Concentration (MIC)", "experimental": "as §1\n(§2) The measures of activities were conducted on compounds A, B and C, following the protocol recommended by the Clinical and Laboratory Standards Institute (CLSI)—Clinical and Laboratory Standards Institute (CLSI, formerly NCCLS):\n(§3) Methods for Dilution Antibacterial Susceptibility Tests for Bacteria That Grow Aerobically; Approved Standard—Tenth Edition (2015). Clinical and Laboratory Standards Institute Document M07-A10."}, "[8]": {"system": "Enterococcus faecium", "assay": "MIC, CLSI dilution antibacterial susceptibility test", "experimental": "as §1, §2, §3"}, "[9]": {"system": "Bacillus subtilis", "assay": "MIC, CLSI dilution antibacterial susceptibility test", "conditions": "Bacillus subtilis ATCC6633", "experimental": "as §1"}, "[10]": {"system": "Enterococcus faecalis", "assay": "MIC, CLSI dilution antibacterial susceptibility test", "experimental": "as §1"}}, "note": "Where two headings read alike, the source gives them in different places."}
{"smiles": "CCC(C)C1NC(=O)C(NC(=O)C(C)NC(=O)/C=C/C=C/CC/C=C/CCCCN/C(=N/C)NC)CC2(CS/C=C\\NC(=O)CNC(=O)C(CC(N)=O)NC2=O)NC(=O)C(CO)NC1=O", "note": "(stereo not shown) [NOC1]", "values": [{"measurement": "MIC", "setting": "[1]", "result": 12, "unit": "µg/mL"}, {"measurement": "MIC", "setting": "[2]", "result": 6, "unit": "µg/mL"}, {"measurement": "MIC", "setting": "[3]", "result": 24, "unit": "µg/mL"}, {"measurement": "MIC", "setting": "[4]", "result": 3, "unit": "µg/mL"}, {"measurement": "MIC", "setting": "[5]", "result": 24, "unit": "µg/mL"}, {"measurement": "MIC", "setting": "[6]", "result": 12, "unit": "µg/mL"}, {"measurement": "MIC", "setting": "[7]; S. aureus ATTC 1683 (ATCC1683), methicillin resistant", "result": 16, "unit": "µg/mL"}, {"measurement": "MIC", "setting": "[7]; S. aureus ATTC 13709 (ATCC13709), fully susceptible / methicillin sensitive", "result": 2, "unit": "µg/mL"}, {"measurement": "MIC", "setting": "[7]; S. aureus ATTC 25923 (ATCC25923), methicillin sensitive", "result": 2, "unit": "µg/mL"}, {"measurement": "MIC", "setting": "[7]; S. aureus USA300, methicillin resistant", "result": 60, "unit": "µg/mL"}, {"measurement": "MIC", "setting": "[8]; Enterococcus faecium ATCC19434, vancomycin sensitive", "result": 8, "unit": "µg/mL"}, {"measurement": "MIC", "setting": "[8]; Enterococcus faecium ATCC51559, vancomycin resistant (gene vanA)", "result": 16, "unit": "µg/mL"}, {"measurement": "MIC", "setting": "[8]; Enterococcus faecium ATCC51858, vancomycin resistant (gene vanB)", "result": 16, "unit": "µg/mL"}, {"measurement": "MIC", "setting": "[9]", "result": 2, "unit": "µg/mL"}, {"measurement": "MIC", "setting": "[10]; Enterococcus faecalis ATCC29212, vancomycin sensitive", "result": 160, "unit": "µg/mL"}, {"measurement": "MIC", "setting": "[10]; Enterococcus faecalis ATCC700802, vancomycin resistant (gene vanB)", "result": 16, "unit": "µg/mL"}]}
